Entries after “also recorded” stand apart in the source; their conditions may differ.
Key:
[1] = test system: arboviruses (CHIKV, WNV, ZIKV); test: qRT-PCR of viral genome replication in drug-treated fibroblasts at 48 hpi; format: cell-based
CHIKV [2] = test: Viral-mediated cytopathic effect / cell death in infected HFF-1 cells; format: cell-based, Chikungunya virus; details: HFF-1, 48 hpi, effective concentration
[3] = test system: TBK-IRF3 signaling cascade; format: cell-based, human; details: HFF-1, pretreatment, uninfected cells
CHIKV [4] = format: cell-based, Chikungunya virus; details: for inhibition of CHIKV, primary screen: HFF-1
CHIKV [5] = format: cell-based, Chikungunya virus; details: read-out: IC50, antiviral activity against CHIKV; human fibroblasts (HFF-1), eight-dose response
ZIKV = format: cell-based, Zika virus; details: HFF-1; for infectivity against ZIKV at the highest non-toxic dose: 100 μg/mL
WNV [6] = format: cell-based, West Nile virus; details: for infectivity against WNV at the highest non-toxic dose: 100 μg/mL; for infectivity against WNV at the highest non-toxic dose / inhibition of WNV, primary screen: HFF-1; for antiviral activity (inhibition) against WNV, primary screen: HFF-1, moderate antiviral activity
WNV [7] = format: cell-based, West Nile virus
CHIKV [8] = format: cell-based, Chikungunya virus
RSV = format: cell-based, respiratory syncytial virus
[9] = test system: STING-IRF3 and STING-NF-κB pathways; format: cell-based, human; details: HFF-1, 2 h post-stimulation
CHIKV [10] = format: cell-based, Chikungunya virus; remark: listed apart in the source
CHIKV [11] = test: RNA sequencing of drug-treated CHIKV-infected HFF-1 cells; format: cell-based, Chikungunya virus; details: for viral genome reads of the total reads: RNA sequencing
CHIKV (strain 181/25) [12] = test: Histopathology and IHC of CHIKV-infected mouse footpad; format: in vivo
CHIKV (strain 181/25) [13] = test: CHIKV arthritis mouse model
HFF-1 cells [14] = test: NAD/NADH-Glo assay, intracellular NADH; format: cell-based, human; details: HFF-1, 48 hpi
HFF-1 cells [15] = test: Intracellular ATP level; format: cell-based, human; details: CHIKV-infected HFF-1, 48 hpi

With `CCn1nc(C)cc1C(=O)Nc1nc2cc(C(N)=O)cc(OC)c2n1C/C=C/Cn1c(NC(=O)c2cc(C)nn2CC)nc2cc(C(N)=O)cc(OCCCN3CCOCC3)c21` [diABZI] the “viral genome replication (qRT-PCR)” value [1] was “significantly reduced”, the “viral-mediated cytopathic effect (CPE)” value (CHIKV [2]) was “prevented CPE” and the “phosphorylation of IRF3 (western blot)” value [3] was “induced phosphorylation of IRF3”. For the same molecule, the “antiviral activity, post-treatment of CHIKV-infected cells” value (CHIKV [4]) was “potent antiviral activity” and the IC50 (CHIKV [5]) was 10.1 nM.

For `Nc1nc2c(ncn2[C@@H]2O[C@@H]3COP(=O)(O)O[C@H]4[C@@H](O)[C@H](n5cnc6c(N)ncnc65)O[C@@H]4COP(=O)(O)O[C@H]3[C@H]2O)c(=O)[nH]1` [3'3'-cGAMP, 3′,3′-cGAMP], the “infectivity against ZIKV at the highest non-toxic dose” value (ZIKV) was “below-detectable infectivity”, the “viral-mediated cytopathic effect (CPE)” value (CHIKV [2]) was “prevented CPE” and the “phosphorylation of IRF3 (western blot)” value [3] was “induced phosphorylation of IRF3”. The “infectivity against CHIKV at the highest non-toxic dose” value (CHIKV [4]) was “below-detectable infectivity” and the “infectivity against WNV at the highest non-toxic dose” value (WNV [6]) was “below-detectable infectivity”.

With `CCC(CC)COC(=O)[C@H](C)N[P@](=O)(OC[C@H]1O[C@@](C#N)(c2ccc3c(N)ncnn23)[C@H](O)[C@@H]1O)Oc1ccccc1` [Remdesivir] the “antiviral activity against WNV” value (WNV [7]) was “no effective antiviral activity; also recorded: not active”, the “antiviral activity against CHIKV” value (CHIKV [8]) was “no effective antiviral activity; also recorded: not active” and the “inhibition of RSV infection” value (RSV) was “efficient inhibition”.

For Scleroglucan, the “viral genome replication (qRT-PCR)” value [1] was “significantly reduced”, the “phosphorylation of IRF3 (Ser386)” value [9] was “only a few cells have a cytoplasmic form of phospho-IRF3” and the “phosphorylation of STING (Ser366)” value [9] was “did not have detectable levels”. The “viral-mediated cytopathic effect (CPE)” value (CHIKV [2]) was “prevented CPE”, the “phosphorylation of IRF3 (western blot)” value [3] was “only the basal level” and the “CHIKV productive infection / replication in PSC-CMs” value (CHIKV [10]) was “inhibited; also recorded: moderately reducing”. For the same molecule, the “antiviral activity (inhibition) against WNV, primary screen” value (“antiviral activity (inhibition)” below) (WNV [6]) was greater than 50% and the “viral genome reads of the total reads” value (CHIKV [11]; CHIKV-infected HFF-1, 24 hpi) was 63%.

`CC(C)Cn1cnc2c(N)nc3ccccc3c21` [Imiquimod] was tested, and the “inhibition of ZIKV, primary screen” value (ZIKV) was “potent inhibition”, the “viral genome replication (qRT-PCR)” value [1] was “significantly reduced” and the “inhibition of CHIKV, primary screen” value (CHIKV [4]) was “not against CHIKV”. For the same molecule, the “inhibition of WNV, primary screen” value (WNV [6]) was “potent inhibition” and the “antiviral activity (inhibition)” value (WNV [6]) was greater than 50%.

For `O=c1cnn([C@@H]2O[C@H](CO)[C@@H](O)[C@H]2O)c(=O)[nH]1` [6-azauridine, 6-Azauridine], the “inhibition of RSV infection” value (RSV) was “efficient inhibition”.

In the case of `Nc1ncnc2c1ncn2[C@@H]1O[C@@H]2COP(=O)(O)O[C@H]3[C@@H](O)[C@H](n4cnc5c(N)ncnc54)O[C@@H]3COP(=O)(O)O[C@H]2[C@H]1O` [c-di-AMP], the “antiviral activity (inhibition)” value (WNV [6]) is reported as greater than 50%.

For `Nc1nc2c(ncn2[C@@H]2O[C@@H]3COP(=O)(O)O[C@H]4[C@@H](O)[C@H](n5cnc6c(N)ncnc65)O[C@@H]4COP(=O)(O)O[C@@H]2[C@@H]3O)c(=O)[nH]1` [2'3'-cGAMP, 2′,3′-cGAMP], the “infectivity against ZIKV at the highest non-toxic dose” value (ZIKV) was “below-detectable infectivity”, the “viral genome replication (qRT-PCR)” value [1] was “significantly reduced” and the “viral-mediated cytopathic effect (CPE)” value (CHIKV [2]) was “prevented CPE”. For the same molecule, the “phosphorylation of IRF3 (western blot)” value [3] was “induced phosphorylation of IRF3”, the “infectivity against CHIKV at the highest non-toxic dose” value (CHIKV [4]) was “below-detectable infectivity” and the “infectivity against WNV at the highest non-toxic dose” value (WNV [6]) was “below-detectable infectivity”.

With `CCCCCCCCCCCCCCCC(=O)OCC(CSC[C@H](N)C(=O)N[C@@H](CO)C(=O)N[C@@H](CCCCN)C(=O)N[C@@H](CCCCN)C(=O)N[C@@H](CCCCN)C(=O)N[C@@H](CCCCN)C(=O)Nc1ccc(Cn2c(O)nc3c(N)nc(NCCCC)nc32)cc1)OC(=O)CCCCCCCCCCCCCCC` (some centres unmarked) [Adilipoline(CL413)] the “effect on viral replication, primary screen (Figure 1C)” value (CHIKV [4]) was “enhanced viral replication”.

For `Nc1nc2c(ncn2[C@@H]2O[C@@H]3COP(=O)(O)O[C@H]4[C@@H](O)[C@H](n5cnc6c(=O)[nH]c(N)nc65)O[C@@H]4COP(=O)(O)O[C@H]3[C@H]2O)c(=O)[nH]1` [c-di-GMP], the “inhibition of ZIKV, primary screen” value (ZIKV) was “potent inhibition”, the “effect on viral replication, primary screen (Figure 1C)” value (CHIKV [4]) was “enhanced viral replication” and the “inhibition of CHIKV, primary screen” value (CHIKV [4]) was “not against CHIKV”. For the same molecule, the “inhibition of WNV, primary screen” value (WNV [6]) was “potent inhibition”.

`CC(=O)N[C@@H]1[C@@H](O[C@H](C)C(=O)N[C@@H](C)C(=O)N[C@H](CCC(=O)O)C(N)=O)[C@H](O)[C@@H](CO)O[C@H]1O` [MDP] was tested, and the “inhibition of ZIKV, primary screen” value (ZIKV) was “potent inhibition”, the “inhibition of CHIKV, primary screen” value (CHIKV [4]) was “not against CHIKV” and the “inhibition of WNV, primary screen” value (WNV [6]) was “potent inhibition”.

In the case of `Nc1ncnc2c1ncn2[C@@H]1O[C@@H]2COP(=O)(O)O[C@H]3[C@@H](O)[C@H](n4cnc5c(=O)[nH]cnc54)O[C@@H]3COP(=O)(O)O[C@H]2[C@H]1O` [cAIMP], the “infectivity against ZIKV at the highest non-toxic dose” value (ZIKV) is reported as “below-detectable infectivity”, the “viral genome replication (qRT-PCR)” value [1] is reported as “significantly reduced” and the “inflammatory cellular infiltration, therapeutic” value (CHIKV (strain 181/25) [12]; cAIMP 10 mg/kg i.p. at 6 or 12 hpi, left footpad) is reported as “reducing”. The “pathological changes and left-rear footpad swelling (histopathology)” value (CHIKV (strain 181/25) [12]; cAIMP pretreatment, 7 dpi) was “prevented”, the “viral-mediated cytopathic effect (CPE)” value (CHIKV [2]) was “prevented CPE” and the “phosphorylation of IRF3 (western blot)” value [3] was “induced phosphorylation of IRF3”. For the same molecule, the “volume of footpad swelling, chronic long-term follow-up” value (CHIKV (strain 181/25) [13]; 14-month-old mice, cAIMP pretreatment, up to 2 months post-infection) was “significantly reduced”, the “virus replication, chronic long-term follow-up” value (CHIKV (strain 181/25) [13]; 14-month-old mice, cAIMP pretreatment, up to 2 months post-infection (59 dpi)) was “significantly reduced” and the “inflammatory gene expression, therapeutic” value (CHIKV (strain 181/25) [13]; mouse, cAIMP 10 mg/kg i.p. at 6 or 12 hpi, left footpad) was “reducing”. The “viral replication, therapeutic” value (CHIKV (strain 181/25) [13]; mouse, cAIMP 10 mg/kg i.p. single dose at 6 or 12 hpi) was “reducing”, the “footpad swelling, therapeutic” value (CHIKV (strain 181/25) [13]; mouse, cAIMP 10 mg/kg i.p. single dose at 6 or 12 hpi, up to 21 dpi) was “protected the animals from significant footpad swelling” and the “CHIKV-mediated footpad swelling, prophylactic” value (CHIKV (strain 181/25) [13]; mouse, cAIMP 10 mg/kg i.p. single dose at day -1, observed 7 days) was “significantly prevented”. The body weight changes (CHIKV (strain 181/25) [13]; mouse, cAIMP at 6 or 12 h post-CHIKV infection) was “No significant body weight changes”, the “reduction in viral genome replication in left-rear footpad (qRT-PCR)” value (CHIKV (strain 181/25) [13]; mouse, cAIMP pretreatment 10 mg/kg i.p., day 3) was 2 log and the “expression of inflammatory genes Ccl2, Il-6 and Il-10 in left footpad” value (CHIKV (strain 181/25) [13]; mouse, cAIMP-pretreated, 7 dpi) was “significant downregulation”. For the same molecule, the “antiviral activity, post-treatment of CHIKV-infected cells” value (CHIKV [4]) was “potent antiviral activity”, the “infectivity against CHIKV at the highest non-toxic dose” value (CHIKV [4]) was “below-detectable infectivity” and the “infectivity against WNV at the highest non-toxic dose” value (WNV [6]) was “below-detectable infectivity”. The “HEATR9 expression induced by CHIKV” value (CHIKV [11]; CHIKV-infected HFF-1) was “reversed the induction”, the “reduction of viral gene expression compared with untreated infected cells” value (CHIKV [11]; CHIKV-infected HFF-1, 24 hpi) was “about 880 fold” and the “viral genome reads of the total reads” value (CHIKV [11]; CHIKV-infected HFF-1, 24 hpi) was 0.1%. The “nicotinamide adenine dinucleotide (NADH) levels” value (HFF-1 cells [14]) was “increased” and the “intracellular ATP” value (HFF-1 cells [15]) was “prevented ATP depletion”.

From publication PMC10213809 (Cell Reports Medicine, 2023)
